{"source": "patent US20170022288A9", "about": "“PANCREATIC CANCER ASSOCIATED ANTIGEN, ANTIBODY THERETO, AND DIAGNOSTIC AND TREATMENT METHODS” (priority 2003, published 2017)", "key": {"BMRPA1 cells [1]": {"test_system": "BMRPA1 cells", "assay": "NNK exposure: effects on BMRPA1 morphology", "assay_type": "cell-based, rat", "details": "for cytotoxic changes: one 16 hour exposure", "procedure": "All preparations of the carcinogen-containing media were made in a separate laboratory within a NCI-designed and certified chemical hood using prescribed protective measures. 4-(N-nitrosmethylamino)-1-(3-pyridyl)-1-butanone (NNK, American Health Foundation, N.Y.) was prepared as a stock solution of 10 mg NNK in PBS and added to FBS-free cRPMI to make final concentrations of 100, 50, 10, 5, and 1 μg/mil. BMRPA1 cells at passage 36 (p36) were seeded at 10^5/60 mm TCDs and allowed to grow for 6 d. At this time the medium was removed, and the cells were washed 2× with prewarmed (37° C.), FBS-free cRPMI before they were treated with FBS-free cRPMI (4 ml/TCD) containing the different concentrations of NNK. A 6th set of TCDs containing BMRPA1 cells was incubated in FBS-free cRPMI without NNK and was used as controls. The eight TCDs used for each of the six sets of different culture conditions were returned to the 37° C. and 95% air-5% CO2 incubator. After 16 h, the NNK-containing medium was removed from all TCDs and the cells were washed 3× with PBS followed by addition of fresh cRPMI-10% FBS (4 ml/TCD), and the incubation continued. Control cultures without NNK were processed in parallel. The cells were fed every 2 d by replacing ½ of the spent medium with fresh cRPMI-10% FBS. At full confluency the cells were collected from all TCDs, the cells in each group were pooled, and passaged at 2×10^4 into fresh TCDs.\nWith the purpose of determining whether such changes are induced by a single exposure to NNK and at relatively small NNK concentrations, BMRPA1 cells were exposed for one 16 hour period to serum free medium containing 100, 50, 10, 5, and 1 μg NNK/mL. […] Furthermore, the gradual pace of these changes at 1 μg/mL allows a passage by passage study of both early and late events in the process of NNK-induced transformation. Thus, the results presented below were obtained with BMRPA1 cells exposed once for 16 h to 1 μg NNK/mL FBS-free medium."}, "BMRPA1 cells [2]": {"test_system": "BMRPA1 cells", "assay": "Anchorage independent colony formation on agar", "assay_type": "cell-based, rat", "details": "NNK-treated BMRPA1 cells; days after seeding 9; 30 sequential 1 mm^2 fields, average of 5 TCFs ± SEM", "procedure": "Aliquots of 4 ml of 0.5% agar-medium mixture (agar was autoclaved in 64 mL H2O, cooled in a water bath to 50° C., and added to 15 mL 5× cRPMI, 19 mL FBS and 1 mL P/S) were poured into 25 cm^2 TCFs and allowed to harden overnight at 4° C. Prior to plating the cells, the flasks were placed in the COT-Air incubator for up to 5 h at 37° C. to facilitate equilibration of pH and temperature. Cells were collected by Trypsin-EDTA, 0.1 mL, of cell suspension (40000/mL cells in cRPMI) was dispersed carefully over the agar surface of each flask and the cultures were returned to the 37° C. incubator with […]-5% CO2. After 24 h, the agar-coated TCFs were inverted to allow drainage of excess medium. The cultures were examined microscopically after 9 d and 14 d for growth of colonies using a Zeiss inverted microscope.\nThe ability of the cloned BMRPA.1NNK and untreated BMRPA1 cells to grow on agar was examined by dispersing cells at low density onto soft agar (see Example 1)."}, "Nu/Nu mice": {"test_system": "Nu/Nu mice", "assay": "Tumorigenicity in Nu/Nu mice", "assay_type": "in vivo, mouse", "details": "10^7 cloned BMRPA1.NNK cells injected s.c.", "procedure": "Nu/Nu mice (7 wks of age) were obtained from Harlan laboratories (Indianapolis, Ind.). The cells used for injection were released by Trypsin-EDTA, washed in cRPMI, and resuspended in PBS at 10^8 cells/mL. Each mouse tested was injected subcutaneously (s.c.) with 0.1 ml of this cell suspension. The animals were inspected for tumor development daily during the first 4 weeks, and thereafter at weekly intervals. Small pieces of the tumors (1-2 mm.) were cut from the core of the tumors and placed in 4% pafaformaldehyde overnight at 4 C. The tissue was then washed in PBS, and placed in 30% sucrose for another 24 h. Sections of tumor tissue frozen in Lipshaw embedding matrix (Pittsburgh, Pa.) were made with a Jung cryostat (Leica), placed on gelatin coated slides, and stored at −20 C. H&E staining was done according to standard procedures.\nCells growing on agar often have the ability to grow as tumors in Nu/Nu mice (Shin et al., 1975; Colburn et al., 1978). The ability of cells to grow in Nu/Nu mice as tumors is believed to be a strong indication of malignant transformation (Chung, 1986). Consequently, 10^7 cloned, live BMRPA1.NNK cells were injected subcutaneously (s.c.) in the posterior flank region of Nu/Nu mice. Another group of mice was injected s.c. under similar conditions with untransformed BMRPA1 cells. […]"}, "BMRPA1 cells [3]": {"test_system": "BMRPA1 cells", "assay": "BrdU incorporation (FACS)", "assay_type": "cell-based, rat", "details": "NNK-treated vs untransformed BMRPA1 cells", "procedure": "Cells (5×10^4) were plated in 60 mm TCD, and allowed to grow in cRPMI-10% FBS. […] Briefly, 10^6 trypsin-EDTA released cells were washed twice in PBS-1% BSA, fixed in 70% ethanol for 30 min, and resuspended in RNAase A (0.1 mg/mL) for 30 min at 37° C. After washing the cells, their DNA was denatured with 2N HCl/Triton X-100 for 30 min, and neutralized with 0.1 M Na2B4O7.10H2O, pH 8.5. The cells were then washed in PBS-1% BSA with 0.5% Tween 20, and resuspended in 50 uL of 0.5% Tween in PBS-1% BSA solution with 20 uL of FITC-AntiBrdU antibody. After 45 min at 37° C., the cells were washed, resuspended in 1 mL of Na Citrate buffer containing Propidium Iodide (0.005 mg/mL) and RNAase A (0.1 mg/mL). Fluorescent activated cell sorting or flow cytometry (FACS) analysis to detect the incorporated BrdU and PI staining was performed by using a FACScan analyzer from Becton Dickinson Co. equipped with an Argon ion laser using excitation wavelength of 488 nm. Data analysis was performed using the LYSYS II program.\nThe measurement of BrdU incorporation in RNAase treated cells is routinely used to assess DNA synthesis during the S phase of proliferating cells (Alberts B., Johnson, A., Lewis, J., Raff, M., Roberts, K., Walter, P., 2002, Molecular Biology of the Cell. Garland Science, Taylor and Francis, 4th ed., NY). […]"}, "BMRPA1 cells [4]": {"test_system": "BMRPA1 cells", "assay": "Cell growth at reduced serum (crystal violet assay)", "assay_type": "cell-based, rat", "details": "NNK-transformed vs untreated BMRPA1 cells, 12 days", "procedure": "To measure cell growth at 10% FBS, cells were seeded at 5×10^4 cell/60 mm TCD containing 4 ml of cRPMI-10% FBS. Every 3 d, triplicate TCDs were removed for each cell line under study, the cells were released with trypsin-EDTA, and counted in the presence of trypan blue. To assess the effect of cRPMI containing reduced FBS concentrations on cell growth, equal numbers (1.5×10^4 cell/ml/well) of NNK-treated and untreated BMRPA1 cells were seeded in triplicate wells of 24 well TCDs. The cells were allowed to adhere overnight in cRPMI 10% FBS, washed with PBS, and reincubated with cRPMI containing the indicated % FBS. Cell growth was evaluated by a modification of the crystal violet relative proliferation assay (Serrano, 1997). Briefly, the cells were washed with PBS, fixed in 10% buffered formalin followed by rinsing with distilled water. The cells were then stained with 0.1% Crystal Violet for 30 min at room temperature (RT), washed with dH2O, and dried. The cell-associated dye was extracted with 1 ml 10% acetic acid, aliquots were diluted 1:2 with dH2O, and transferred to 96-well microtiter plates for OD600nm measurements. The cell growth was calculated relative to the OD600nm values read at 24 h. […]"}}, "data": [{"smiles": "CN(CCCC(=O)c1cccnc1)N=O", "note": "[NNK, 4-(methyl-nitrosamino)-1-(3-pyridyl)-1-butanone]", "values": [{"measurement": "phenotypical changes (neoplastic transformation)", "setting": "BMRPA1 cells [1]; 1 μg/ml, slower rate, over several weeks", "value": "phenotypical changes characteristic of neoplastic transformation"}, {"measurement": "cytotoxic changes", "setting": "BMRPA1 cells [1]; 5, and 1 μg NNK/mL", "value": "considerably less"}, {"measurement": "phenotypical changes (neoplastic transformation)", "setting": "BMRPA1 cells [1]; 100, 50, 10 μg NNK/ml, within a week", "value": "phenotypical changes indicative of neoplastic transformation"}, {"measurement": "cytotoxic changes", "setting": "BMRPA1 cells [1]; larger concentrations (100, 50, 10 μg NNK/mL), serum free medium", "value": "cylotoxic changes"}, {"measurement": "# of colonies* formed <50 cells", "setting": "BMRPA1 cells [2]", "value": 14}, {"measurement": "# of colonies* formed >50 cells", "setting": "BMRPA1 cells [2]", "value": "15.8 ± 2.5"}, {"measurement": "# of colonies* formed Total", "setting": "BMRPA1 cells [2]", "value": "17.3 ± 5.2"}, {"measurement": "# of mice with metastasis/# of mice tested", "setting": "Nu/Nu mice", "value": "1/6"}, {"measurement": "# of mice with tumor/# of mice tested", "setting": "Nu/Nu mice", "value": "3/6"}, {"measurement": "proliferative changes (BrdU incorporation)", "setting": "BMRPA1 cells [3]", "value": "permanent hyperproliferative changes"}, {"measurement": "cell growth at 1%, 5%, and 10% FBS", "setting": "BMRPA1 cells [4]", "value": "selective growth advantage"}]}]}
